Experimental data taken from patent publication US20060063803A1, “4-Amino substituted-2-substituted-1,2,3,4-tetrahydroquinoline compounds” (Pfizer Inc, priority 2004, published 2006).

Tests used:
[1] = In vitro microcentrifuge dissolution test; assay type: physicochemical; conditions: PBS pH 6.5, 290 mOsm/kg, 7.3 mM sodium taurocholic acid, 1.4 mM 1-palmitoyl-2-oleyl-sn-glycero-3-phosphocholine, 37° C.; 200 μgA/mL if all dissolved
Method: An in vitro dissolution test was used to determine the dissolution performance of the solid amorphous dispersion of Example 89. For this test, a sufficient amount of material was added to a microcentrifuge test tube so that the concentration of Compound A would have been 200 μgA/mL, if all of the compound had dissolved. The test was run in duplicate. The tubes were placed in a 37° C. temperature-controlled chamber, and 1.8 mL PBS at pH 6.5 and 290 mOsm/kg, containing 7.3 mM sodium taurocholic acid and 1.4 mM of 1-palmitoyl-2-oleyl-sn-glycero-3-phosphocholine, was added to each respective tube. The samples were quickly mixed using a vortex mixer for about 60 seconds. The samples were centrifuged at 13,000 G at 37° C. for 1 minute. The resulting supernatant solution was then sampled and diluted 1:5 (by volume) with methanol and analyzed by high-performance liquid chromatography (HPLC). HPLC analysis was performed using a Zorbax RX-C18 column. The mobile phase consisted of 30/70 0.15% trifluoroacetic acid/acetonitrile, with a flow rate of 1.0 mL/min. UV absorbance was measured at 254 nm. The contents of each tube were mixed on the vortex mixer and allowed to stand undisturbed at 37° C. until the next sample was taken. Samples were collected at 4, 10, 20, 40, 90, and 1200 minutes. […]

[2] = In vivo tests - dogs, oral suspension, serum levels by LC/MS/MS; conditions: dog, 3 male beagle dogs, fasted, oral gavage of OPC suspension, 3 mgA/kg
Method: Samples were dosed orally as suspensions to 3 male beagle dogs in the fasted state. Oral powders for constitution (OPC) were prepared by adding 150 mg of crystalline Compound A to 50 mL water containing 0.5 wt % Methylcellulose A, or 600 mg of the dispersion of Example 1 to 50 mL water containing 0.5 wt % Methylcellulose A and 0.1 wt % Tween 80. Dogs were fasted overnight, and allowed ad libidum access to water. On the morning of the study, approximately 10 mL of OPC solution (3 mgA/kg) was administered via oral gavage with 10 mL normal saline flush.
Whole-blood samples (3-mL red-top Vacutainer tubes without serum separators) were taken from the jugular vein before dosing and at 0.25, 0.5, 1, 2, 4, 6, 8, and 24 hours after dosing. Serum was harvested into cryovials after centrifugation at 3000 rpm for 10 minutes. The samples were frozen and then kept at −20° C. until they were analyzed by liquid chromatography with tandem mass spectrometry (LC/MS/MS).

AUC90 (area under the concentration-versus-time curve during the initial ninety minutes) [1]: 800 min * μgA/mL
MDC90 (maximum dissolved concentration of Compound A during the initial ninety minutes) [1]: 13 μgA/mL
AUC(0-inf) [2]: 2690 ng·h/mL
Cmax [2]: 186 ng/mL
SMILES: CC[C@@H]1C[C@H](N(Cc2cc(C(F)(F)F)cc(C(F)(F)F)c2)c2nnn(C)n2)c2cc(C(F)(F)F)ccc2N1C(=O)[C@H]1CC[C@H](CC(N)=O)CC1 [Crystalline Compound A, Trans-(2R,4S)-2-(4-{4-[(3,5-Bis-trifluoromethyl-benzyl)-(2-methyl-2H-tetrazol-5-yl)-amino]-2-ethyl-6-trifluoromethyl-3,4-dihydro-2H-quinoline-1-carbonyl}-cyclohexyl)-acetamide]
